Assay results from patent US20240279278A1, “NMU RECEPTOR 2 AGONISTS” (Boehringer Ingelheim International GmbH, priority 2023, published 2024).
≈ marks a conversion by molar mass, not a printed value. Residues, ends and D or L forms follow the SMILES beside them.

Tests used:
[1] = physchem; assay type: physicochemical
Experimental: Example 6: Solubility Determination
Peptides (as TFA-salts) were weighed out in a filter unit (Mini-UniPrep Syringeless Filter 0.45 μm, Whatman PVDF), and 0.1 M phosphate buffer at pH 6 to 8 was added to achieve 10 mg/mL final peptide concentration. The peptides were dissolved by shaking the filter units horizontally at 350 rpm for 2 hours at room temperature. Samples were then filtered to remove any insoluble particles. Controls were prepared by weighing out the corresponding peptide solid material and dissolving it in an appropriate vehicle (e.g. buffer or DMSO) to a final concentration of 1 mg/mL. Both, the control and sample were analyzed by reversed phase chromatography. The area under the peak of the sample was compared to the control and the solubility was calculated based on that ratio. The pH was measured and recorded for each sample.

[2] = molecular target: human NMUR2 receptor (Homo sapiens, UniProt Q9GZQ4); assay: IP1 Gq HTRF assay, activation of human NMUR2 in human plasma; assay type: cell-based; set-up: expressed in transfected cells; host or cells: CHO-K1; details: CHO-K1 cells expressing human NMUR2, 100% human plasma; read-out: EC50 (hNMUR2) human plasma
Summary of the method: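 CHO-K1 cells stably expressing human NMUR2 exposed to peptide agonists (8-point dose-response) in 100% human plasma with 50 mM LiCl, 1% DMSO, for 1 h at 37° C. IP1 accumulation read by HTRF competition (665/620 nm ratio). EC50 from 4-parameter sigmoidal fit.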

[3] = molecular target: T1, human NMUR1 receptor (Homo sapiens, UniProt Q9HB89); assay: Radioligand binding competition assay (RLB), human NMUR1 receptor binding (SPA, [125I]-Neuromedin U-25); details: CHO-K1 hNMUR1 cell membranes, 4 hours at RT
T1 construct: host or cells: CHO-K1
T1 sequence (Q9HB89 24-426 limits assumed): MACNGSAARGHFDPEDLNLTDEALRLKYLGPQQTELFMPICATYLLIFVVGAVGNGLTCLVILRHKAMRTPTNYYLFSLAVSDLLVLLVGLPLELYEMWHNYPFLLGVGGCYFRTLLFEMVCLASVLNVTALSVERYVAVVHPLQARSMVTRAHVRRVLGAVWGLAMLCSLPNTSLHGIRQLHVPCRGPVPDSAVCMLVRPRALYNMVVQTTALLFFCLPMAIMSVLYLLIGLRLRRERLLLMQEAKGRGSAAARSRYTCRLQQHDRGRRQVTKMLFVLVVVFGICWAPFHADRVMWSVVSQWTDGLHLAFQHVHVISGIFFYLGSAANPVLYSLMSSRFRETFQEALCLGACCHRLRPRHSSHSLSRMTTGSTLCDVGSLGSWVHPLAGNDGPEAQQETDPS
From the text: Example 2: Radioligand Binding Competition Assay (RLB) Human NMUR1 Receptor Binding 1) Membranes The test is based on membranes prepared from a human NMUR1/Apoaequorin Stable Cell Line (Creative Biogene, Cat. No. CSC-RG1308). Cell Line Description: CHO-NMUR1 cell line is clonally-derived from a CHO-K1 cell line, which has been transfected with a bicistronic expression plasmid containing the sequence coding for the human neuromedin U receptor 1 (NM_006056.4, 180 to 1391). Mosaic-ID: CL16550614 Membrane preparation: Cells were broken by nitrogen cavitation (900 psi, 1 hour). Intact cells were removed by centrifugation (400 rcf, 10 minutes, 4° C.) before the crude membrane fraction was collected by ultracentrifugation (20.000 rcf, 1 hour, 4° C.). 2) Human NMUR1 Receptor Binding Assay (Radioligand: [125l]-Neuromedin U-25) In this Scintillation Proximity Assay (SPA) design, the membranes immobilize directly to the PVT-WGA-PEI type A beads (polyethyleneimine treated polyvinyltoluene beads coupled to wheatgerm agglutinin, Perkin Elmer) via interactions of wheat germ agglutinate and glycosylated membrane structures. Thereby the radioactively la-belled ligand, bound to NMUR1 receptors on the membrane, comes in close proximity to the solid scintillator of the PVT bead. Radioactive human neuromedin U-25 then stimulates the scintillant to emit light. In contrast, radioligand not bound to the receptor is too distant from the bead to elicit a signal. For the Scintillation Proximity Assay the CHO-K1 hNMUR1 cell membranes and SPA-beads are diluted to concentrations, which assure a robust signal to background ratio. The SPA incubation buffer consists of 25 mM Hepes (pH=7.0), 5 mM MgCl2, 1 mM CaCl2, 10 ug/mL Saponine and 0.1% bovine serum albumin and is used for all dilutions. Final assay setup in 96-well plate: 20 μL of 10× test compound dilutions+40 μL of 5× [125l]-Neuromedin U-25 (1× approx. 30 pM; 2000 μCi/mmol (μCi=microcurie))+60 μL membrane dilution (approx. 1.0 μg membrane protein)+80 μL SPA bead dilution (250 μg). The assay is incubated for 4 hours at RT, including controls for specific binding where no displacer is added and non-specific binding by adding unlabeled hNMU-25 at 100 nM. Bound radioactivity is determined by scintillation counting (MicroBeta Trilux 1450, Perkin Elmer, detection of 125I decay). […] The system assumes one binding site with no relevant radioligand depletion (<10%) and that the binding is reversible and at equilibrium. [formula] [formula]

human NMUR2 receptor, sequence (Q9GZQ4 whole entry): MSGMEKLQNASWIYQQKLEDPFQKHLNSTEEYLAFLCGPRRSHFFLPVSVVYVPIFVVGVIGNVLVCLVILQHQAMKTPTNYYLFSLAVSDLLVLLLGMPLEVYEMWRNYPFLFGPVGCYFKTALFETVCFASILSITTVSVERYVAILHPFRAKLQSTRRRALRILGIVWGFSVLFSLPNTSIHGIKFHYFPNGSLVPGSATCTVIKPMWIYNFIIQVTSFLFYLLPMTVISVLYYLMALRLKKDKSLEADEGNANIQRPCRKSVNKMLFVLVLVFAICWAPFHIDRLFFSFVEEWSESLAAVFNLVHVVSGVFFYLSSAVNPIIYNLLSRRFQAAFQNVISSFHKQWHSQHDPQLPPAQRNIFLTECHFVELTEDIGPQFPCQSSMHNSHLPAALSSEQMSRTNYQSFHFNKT

SMILES	solubility at 2 h ([1]; pH 7.2) [µg/mL]	EC50 [2] [nM]	Ki [3] [nM]	solubility at 2 h ([1]; pH 7) [µg/mL]	solubility at 2 h ([1]; pH 7.3) [µg/mL]
CCCC[C@H](NC(=O)[C@H](CC(C)C)N(C)C(=O)[C@H](Cc1ccccc1)NC(=O)[C@H](Cc1ccc(O)cc1)NC(=O)CN1CCN(CCNC(=O)CN(C)C(=O)CN(C)C(=O)CN(C)C(=O)CN(C)C(=O)CN(C)C(=O)CN(C)C(=O)CN(C)C(=O)CN(C)C(=O)CN(C)C(=O)CN(C)C(=O)CN(C)C(=O)CN(C)C(=O)CC[C@H](NC(=O)CC[C@H](NC(=O)CC[C@H](NC(=O)CCCCCCCCCCCCCCCCCCC(=O)O)C(=O)O)C(=O)O)C(=O)O)CC1)C(=O)N[C@@H](CCCNC(=N)N)C(=O)N1CCC[C@H]1C(=O)N[C@@H](CCCNC(=N)N)C(=O)NCC(N)=O [Compound 6, C20DA-gGlu3-Sar12-AEPipAc-Tyr-Phe-NMeLeu-Nle-Arg-Pro-Arg-Gly-NH2]	4600 (≈ 1660 µM)	6.9	> 10000	–	–
CCCC[C@H](NC(=O)[C@H](CC(C)C)N(C)C(=O)[C@H](Cc1ccccc1)NC(=O)[C@H](Cc1ccc(O)cc1)NC(=O)CN1CCN(CCNC(=O)CN(C)C(=O)CN(C)C(=O)CN(C)C(=O)CN(C)C(=O)CN(C)C(=O)CN(C)C(=O)CN(C)C(=O)CN(C)C(=O)CN(C)C(=O)CN(C)C(=O)CN(C)C(=O)CN(C)C(=O)CN(C)C(=O)CN(C)C(=O)CN(C)C(=O)CC[C@H](NC(=O)CC[C@H](NC(=O)CC[C@H](NC(=O)CCCCCCCCCCCCCCCCC(=O)O)C(=O)O)C(=O)O)C(=O)O)CC1)C(=O)N[C@@H](CCCNC(=N)N)C(=O)N1CCC[C@H]1C(=O)N[C@@H](CCCNC(=N)N)C(=O)NCC(N)=O [Compound 7, C18DA-gGlu3-Sar15-AEPipAc-Tyr-Phe-NMeLeu-Nle-Arg-Pro-Arg-Gly-NH2] (HELM PEPTIDE1{[O=C(O)CCCCCCCCCCCCCCCCC(=O)[*:2]].[gGlu].[gGlu].[gGlu].[Sar].[Sar].[Sar].[Sar].[Sar].[Sar].[Sar].[Sar].[Sar].[Sar].[Sar].[Sar].[Sar].[Sar].[Sar].[O=C(CN1CCN(CCN[*:1])CC1)[*:2]].Y.F.[meL].[Nle].R.P.R.G.[am]}$$$$V2.0)	–	4.4	3740	7000 (≈ 2370 µM)	–
CCCC[C@H](NC(=O)[C@H](CC(C)C)N(C)C(=O)[C@H](Cc1ccccc1)NC(=O)[C@H](Cc1ccc(O)cc1)NC(=O)CN1CCN(CCNC(=O)CN(C)C(=O)CN(C)C(=O)CN(C)C(=O)CN(C)C(=O)CN(C)C(=O)CN(C)C(=O)CN(C)C(=O)CN(C)C(=O)CN(C)C(=O)CN(C)C(=O)CN(C)C(=O)CN(C)C(=O)CC[C@H](NC(=O)CC[C@H](NC(=O)CC[C@H](NC(=O)CCCCCCCCCCCCCCCCCCC(=O)O)C(=O)O)C(=O)O)C(=O)O)CC1)C(=O)N[C@@H](CCN)C(=O)N1CCC[C@H]1C(=O)N[C@@H](CCCNC(=N)N)C(=O)NCC(N)=O [Compound 8, C20DA-gGlu3-Sar12-AEPipAc-Tyr-Phe-NMeLeu-Nle-Dbu-Pro-Arg-Gly-NH2]	–	9	> 10000	–	1900 (≈ 701 µM)
CCCC[C@H](NC(=O)[C@H](CC(C)C)N(C)C(=O)[C@H](Cc1ccccc1)NC(=O)[C@H](Cc1ccc(O)cc1)NC(=O)CN1CCN(CCNC(=O)CN(C)C(=O)CN(C)C(=O)CN(C)C(=O)CN(C)C(=O)CN(C)C(=O)CN(C)C(=O)CN(C)C(=O)CN(C)C(=O)CN(C)C(=O)CN(C)C(=O)CN(C)C(=O)CN(C)C(=O)CC[C@H](NC(=O)CC[C@H](NC(=O)CC[C@H](NC(=O)CCCCCCCCCCCCCCCCC(=O)O)C(=O)O)C(=O)O)C(=O)O)CC1)C(=O)N[C@@H](CCCN)C(=O)N(C)[C@@H](C)C(=O)N[C@@H](CCCNC(=N)N)C(=O)NCC(N)=O [Compound 20, C18DA-gGlu3-Sar12-AEPipAc-Tyr-Phe-NMeLeu-Nle-Orn-NMeAla-Arg-Gly-NH2]	8400 (≈ 3130 µM)	12.1	> 10000	–	–
CCCC[C@H](NC(=O)[C@H](CC(C)C)N(C)C(=O)[C@H](Cc1ccccc1)NC(=O)[C@H](Cc1ccc(O)cc1)NC(=O)CN1CCN(CCNC(=O)CN(C)C(=O)CN(C)C(=O)CN(C)C(=O)CN(C)C(=O)CN(C)C(=O)CN(C)C(=O)CN(C)C(=O)CN(C)C(=O)CN(C)C(=O)CN(C)C(=O)CN(C)C(=O)CN(C)C(=O)CN(C)C(=O)CN(C)C(=O)CN(C)C(=O)CC[C@H](NC(=O)CC[C@H](NC(=O)CC[C@H](NC(=O)CCCCCCCCCCCCCCCCC(=O)O)C(=O)O)C(=O)O)C(=O)O)CC1)C(=O)N[C@@H](CCCN)C(=O)N1CCC[C@H]1C(=O)N[C@@H](CCCNC(=N)N)C(=O)NCC(N)=O [Compound 21, C18DA-gGlu3-Sar15-AEPipAc-Tyr-Phe-NMeLeu-Nle-Orn-Pro-Arg-Gly-NH2] (HELM PEPTIDE1{[O=C(O)CCCCCCCCCCCCCCCCC(=O)[*:2]].[gGlu].[gGlu].[gGlu].[Sar].[Sar].[Sar].[Sar].[Sar].[Sar].[Sar].[Sar].[Sar].[Sar].[Sar].[Sar].[Sar].[Sar].[Sar].[O=C(CN1CCN(CCN[*:1])CC1)[*:2]].Y.F.[meL].[Nle].[Orn].P.R.G.[am]}$$$$V2.0)	–	8.7	> 10000	–	7500 (≈ 2580 µM)
CCCC[C@H](NC(=O)[C@H](CC(C)C)N(C)C(=O)[C@H](Cc1ccccc1)NC(=O)[C@H](Cc1ccc(O)cc1)NC(=O)CN1CCN(CCNC(=O)CN(C)C(=O)CN(C)C(=O)CN(C)C(=O)CN(C)C(=O)CN(C)C(=O)CN(C)C(=O)CN(C)C(=O)CN(C)C(=O)CN(C)C(=O)CN(C)C(=O)CN(C)C(=O)CN(C)C(=O)CN(C)C(=O)CN(C)C(=O)CN(C)C(=O)CC[C@H](NC(=O)CC[C@H](NC(=O)CC[C@H](NC(=O)CCCCCCCCCCCCCCCCC(=O)O)C(=O)O)C(=O)O)C(=O)O)CC1)C(=O)N[C@@H](CCCN)C(=O)N(C)[C@@H](C)C(=O)N[C@@H](CCCNC(=N)N)C(=O)NCC(N)=O [Compound 22, C18DA-gGlu3-Sar15-AEPipAc-Tyr-Phe-NMeLeu-Nle-Orn-NMeAla-Arg-Gly-NH2] (HELM PEPTIDE1{[O=C(O)CCCCCCCCCCCCCCCCC(=O)[*:2]].[gGlu].[gGlu].[gGlu].[Sar].[Sar].[Sar].[Sar].[Sar].[Sar].[Sar].[Sar].[Sar].[Sar].[Sar].[Sar].[Sar].[Sar].[Sar].[O=C(CN1CCN(CCN[*:1])CC1)[*:2]].Y.F.[meL].[Nle].[Orn].[meA].R.G.[am]}$$$$V2.0)	–	10.8	> 10000	–	8600 (≈ 2970 µM)
